Assay results reported in PubChem BioAssay (NCI).
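Grown in 96-well plates, cells were treated for 48 hours with each compound at five concentrations. Insufficient inhibition: endpoint recorded as highest concentration tested. GI50 marks 50% less growth. Definition used: TGI = concentration required for complete inhibition of growth.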

Assays:
Test in all cases: growth of human tumour cells (NCI), 48 h
[1] = system: NCI-H23 lung
[2] = system: SK-OV-3 ovarian
[3] = system: HCT-116 colon
[4] = system: SF-295 CNS
[5] = system: NCI-H226 lung
[6] = system: IGROV1 ovarian
[7] = system: OVCAR-5 ovarian
[8] = system: A498 renal
[9] = system: HCC-2998 colon
[10] = system: MALME-3M melanoma
[11] = system: HS 578T breast
[12] = system: 786-0 renal
[13] = system: HL-60(TB) leukemia
[14] = system: SNB-75 CNS
[15] = system: NCI-H522 lung
[16] = system: NCI/ADR-RES ovarian
[17] = system: UO-31 renal
[18] = system: SK-MEL-28 melanoma
[19] = system: SW-620 colon
[20] = system: SF-268 CNS
[21] = system: SN12C renal
[22] = system: MOLT-4 leukemia
[23] = system: SK-MEL-2 melanoma
[24] = system: RPMI-8226 leukemia
[25] = system: A549 NSCLC
[26] = system: HT29 colon
[27] = system: SNB-19 CNS
[28] = system: MCF7 breast
[29] = system: EKVX NSCLC
[30] = system: OVCAR-4 ovarian
[31] = system: HOP-62 NSCLC
[32] = system: SK-MEL-5 melanoma
[33] = system: HCT-15 colon
[34] = system: KM12 colon
[35] = system: RXF 393 renal
[36] = system: K-562 leukemia
[37] = system: DU-145 prostate
[38] = system: OVCAR-3 ovarian
[39] = system: SF-539 CNS
[40] = system: M14 melanoma
[41] = system: MDA-MB-231 breast
[42] = system: ACHN renal
[43] = system: U251 CNS
[44] = system: CAKI-1 renal
[45] = system: NCI-H460 lung
[46] = system: OVCAR-8 ovarian
[47] = system: UACC-62 melanoma
[48] = system: MDA-MB-435
[49] = system: CCRF-CEM leukemia
[50] = system: HOP-92 NSCLC
[51] = system: PC-3 prostate
[52] = system: BT-549 breast
[53] = system: LOX IMVI melanoma
[54] = system: TK-10 renal
[55] = system: T-47D breast
[56] = system: COLO 205 colon
[57] = system: SR leukemia

SMILES: COc1ccc(/C=C/c2nnc(/C=C/c3ccc(OC)c(OC)c3)o2)cc1OC
- GI50 [1]: 4.4 µM
- TGI [1]: > 100 µM
- GI50 [2]: 8.62 µM
- TGI [2]: 93.3 µM
- GI50 [3]: 2.57 µM
- TGI [3]: 17.7 µM
- GI50 [4]: 2.95 µM
- TGI [4]: 17.7 µM
- GI50 [5]: 14.9 µM
- TGI [5]: > 100 µM
- GI50 [6]: 4.23 µM
- TGI [6]: > 100 µM
- GI50 [7]: 4.9 µM
- TGI [7]: 53.8 µM
- GI50 [8]: 0.24 µM
- TGI [8]: 9.1 µM
- GI50 [9]: 19.4 µM
- TGI [9]: > 100 µM
- GI50 [10]: 6.16 µM
- TGI [10]: > 100 µM
- GI50 [11]: 3.71 µM
- TGI [11]: 47.5 µM
- GI50 [12]: 5.59 µM
- TGI [12]: > 100 µM
- GI50 [13]: 2.36 µM
- TGI [13]: 8.6 µM
- GI50 [14]: 4.22 µM
- TGI [14]: 45.5 µM
- GI50 [15]: 1.9 µM
- TGI [15]: 6.8 µM
- GI50 [16]: 3.52 µM
- TGI [16]: > 100 µM
- GI50 [17]: 4.78 µM
- TGI [17]: > 100 µM
- GI50 [18]: 4.96 µM
- TGI [18]: > 100 µM
- GI50 [19]: 3.35 µM
- TGI [19]: > 100 µM
- GI50 [20]: 7.77 µM
- TGI [20]: > 100 µM
- GI50 [21]: 5.5 µM
- TGI [21]: > 100 µM
- GI50 [22]: 3.24 µM
- TGI [22]: > 100 µM
- GI50 [23]: 2.9 µM
- TGI [23]: 18.6 µM
- GI50 [24]: 2.65 µM
- TGI [24]: > 100 µM
- GI50 [25]: 4.84 µM
- TGI [25]: > 100 µM
- GI50 [26]: 2.61 µM
- TGI [26]: 10.8 µM
- GI50 [27]: 4.11 µM
- TGI [27]: 91.7 µM
- GI50 [28]: 3.44 µM
- TGI [28]: > 100 µM
- GI50 [29]: 6.22 µM
- TGI [29]: > 100 µM
- GI50 [30]: 9.08 µM
- TGI [30]: > 100 µM
- GI50 [31]: 5.21 µM
- TGI [31]: > 100 µM
- GI50 [32]: 2.17 µM
- TGI [32]: 10.1 µM
- GI50 [33]: 2.78 µM
- TGI [33]: > 100 µM
- GI50 [34]: 6.86 µM
- TGI [34]: > 100 µM
- GI50 [35]: 7.9 µM
- TGI [35]: 78.1 µM
- GI50 [36]: 1.83 µM
- TGI [36]: > 100 µM
- GI50 [37]: 15 µM
- TGI [37]: > 100 µM
- GI50 [38]: 5.01 µM
- TGI [38]: 80.8 µM
- GI50 [39]: 2.66 µM
- TGI [39]: 9.4 µM
- GI50 [40]: 3.1 µM
- TGI [40]: 26 µM
- GI50 [41]: 3.62 µM
- TGI [41]: 43.4 µM
- GI50 [42]: 13.9 µM
- TGI [42]: > 100 µM
- GI50 [43]: 3.81 µM
- TGI [43]: 18.6 µM
- GI50 [44]: 11.4 µM
- TGI [44]: > 100 µM
- GI50 [45]: 4.23 µM
- TGI [45]: > 100 µM
- GI50 [46]: 8.78 µM
- TGI [46]: > 100 µM
- GI50 [47]: 2.39 µM
- TGI [47]: 9.91 µM
- GI50 [48]: 0.929 µM
- TGI [48]: 3.93 µM
- GI50 [49]: 3.97 µM
- TGI [49]: > 100 µM
- GI50 [50]: 2.52 µM
- TGI [50]: 23.3 µM
- GI50 [51]: 4.07 µM
- TGI [51]: > 100 µM
- GI50 [52]: 2.9 µM
- TGI [52]: 35.7 µM
- GI50 [53]: 3.11 µM
- TGI [53]: 29 µM
- GI50 [54]: 3.77 µM
- TGI [54]: 27.8 µM
- GI50 [55]: 3.48 µM
- TGI [55]: 81.2 µM
- GI50 [56]: 8.35 µM
- TGI [56]: 98.2 µM

SMILES: Cc1ccc(C2(c3ccc(C)cc3)SC(=C(C#N)C#N)c3ccccc32)cc1
- TGI [1]: > 100 µM
- TGI [2]: > 100 µM
- TGI [3]: > 100 µM
- TGI [4]: > 100 µM
- TGI [5]: > 100 µM
- TGI [6]: > 100 µM
- TGI [7]: > 100 µM
- TGI [8]: > 100 µM
- TGI [9]: > 100 µM
- TGI [10]: > 100 µM
- TGI [11]: > 100 µM
- TGI [12]: > 100 µM
- TGI [13]: > 100 µM
- TGI [16]: > 100 µM
- TGI [17]: > 100 µM
- TGI [18]: > 100 µM
- TGI [19]: > 100 µM
- TGI [20]: > 100 µM
- TGI [21]: > 100 µM
- TGI [22]: > 100 µM
- TGI [23]: > 100 µM
- TGI [57]: > 100 µM
- TGI [25]: > 100 µM
- TGI [26]: > 100 µM
- TGI [27]: > 100 µM
- TGI [28]: > 100 µM
- TGI [29]: > 100 µM
- TGI [31]: > 100 µM
- TGI [32]: > 100 µM
- TGI [33]: > 100 µM
- TGI [34]: > 100 µM
- TGI [35]: > 100 µM
- TGI [36]: > 100 µM
- TGI [37]: > 100 µM
- TGI [38]: > 100 µM
- TGI [39]: > 100 µM
- TGI [40]: > 100 µM
- TGI [41]: > 100 µM
- TGI [42]: > 100 µM
- TGI [43]: > 100 µM
- TGI [45]: > 100 µM
- TGI [46]: > 100 µM
- TGI [47]: > 100 µM
- TGI [48]: > 100 µM
- TGI [49]: > 100 µM
- TGI [50]: > 100 µM
- TGI [51]: > 100 µM
- TGI [52]: > 100 µM
- TGI [54]: > 100 µM
- TGI [55]: > 100 µM
